Experimental data published in patent US20030134803A1, “Use of sulfonated compounds as a barrier contraceptive” (The Regents of the University of California, priority 2002, published 2003).

Assays:
[1] = tested on: zona pellucida of immature oocytes; test: sperm-zona pellucida binding assay (ZBA); format: cell-based, cynomolgus macaque
sperm = sperm percent motility and progression scoring; format: cell-based, cynomolgus macaque; conditions: for effect on percentage of motile sperm and sperm progression: zona binding studies, 1.5 mg/ml, pre- or post-capacitation treatment
Description: Four adult male cynomolgus macaques which were caged individually at the California Regional Primate Research Center (CRPRC) in compliance with the Federal Animal Welfare Act and the NIH Guidelines for Care and Use of Laboratory Animals. The animals were maintained on a 12L:12D light cycle at 25-27° C. and were given a diet of Purina monkey chow and water ad libitum. Semen samples were collected by electroejaculation, e.g., as described in Sarason et al., The use of nonmetal electrodes in ejaculation of restrained but unanesthetized macaques, (1991) J. Med. Primatol., 20:122-125, into 15 ml centrifuge tubes containing 5 ml of Hepes-buffered BWW maintained at room temperature (RT). After 15-30 min, the coagulum was removed, the semen samples were further diluted with an additional 5 ml of Hepes-buffered BWW containing 3 mg/ml bovine serum albumin (BSA) and then concentrated into a 1 ml pellet by centrifugation at 300×g for 10 minutes. LSA (previously dissolved in hepes-buffered BWW salts) was added to half of the pellet to give a final concentration of 1.5 mg LSA/ml of sperm. An equal volume of hepes-buffered BWW salts was added to the other half of the pellet. Both aliquots were incubated at room temperature for 40 minutes and then washed and capacitated, e.g., as described in Tollner T L, et al., Soybean trypsin inhibitor as a probe for the acrosome reaction in motile cynomolgus macaque sperm (2000) Zygote 8:127-137. Briefly, sperm were centrifuged through 3.5 ml of 80% Percoll for 25 minutes at 400 g. The supernatant containing Percoll and any remaining sperm was removed and the sperm pellet was resuspended in bicarbonate-buffered BWW, e.g., as described in Overstreet et al., Penetration of human spermatozoa into the human zona pellucida and the zona-free hamster egg: a study of fertile donors and infertile patients, (1980), Fertil. Steril., 33:534-542; and, Overstreet et al., In vitro capacitation of human spermatozoa after passage through a column of cervical mucus, (1980) Fert. Steril., 34:604-606, containing 30 mg/ml of BSA. Sperm were washed two more times by centrifugation at 300 g for 10 minutes and dilution in this medium. […] Following activation, 200 sperm per treatment were scored for percent motility at 200× magnification with phase-contrast optics using a BH-2 series Olympus microscope. Progression was assessed with a 0-4 rating system (0=no progressive sperm; 1=1-25% of motile sperm have forward (space gaining) progressive motility; 2=26-50% of motile sperm have forward progressive motility; 3=51-75% of motile sperm have forward progressive motility; 4=76-100% of motile sperm have forward progressive motility).

mature oocytes = test: in vitro fertilization (IVF) with treated sperm; format: cell-based, cynomolgus macaque; conditions: 1.5 mg/ml
[2] = oral; cited from earlier work
[3] = 1.5 mg/ml added post-capacitation (PC, Post-C), after activation
[4] = 1.5 mg/ml added pre-capacitation (Pre-C, pre-wash PW), prior to washing through Percoll and overnight incubation

Substance	binding of treated sperm to the zona pellucida of immature oocytes (in words) ([1]; treatment post-capacitation (PC) or pre-wash (PW), FIG. 3)	inhibition of sperm-zona binding as compared to controls [1, 3] [%]	inhibition of sperm-zona binding as compared to controls [1, 4] [%]	effect on sperm motility in IVF (sperm; IVF sperm preparations)	percentage of sperm developing hyperactivated motility patterns consistent with capacitation (sperm; LSA-treated and control sperm) [%]	effect on percentage of motile sperm and sperm progression (sperm)	fertilization in IVF trials (mature oocytes; post-capacitation (Post-C, PC) treatment)	fertilization in IVF trials (mature oocytes; pre-capacitation (prewash, PW, Pre-C) treatment)	LD50 [2] [mg/kg]
polyanetholesulfonic acid [PASA]	inhibited their binding to the zona pellucida	–	–	–	–	–	–	–	–
Lignosulfonic acid [LSA]	–	92.5	82.5	no difference between treatments on sperm motility	> 75	Neither the percentage of motile sperm or sperm progression were effected	blocked fertilization	blocked fertilization	> 40000
Fucoidan [reference compound]	–	91.5	36	–	–	No motility changes were observed	–	–	–
